From PubChem BioAssay (NCI)
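The compound was tested at five concentrations on cells cultured in 96-well plates, with a 48-hour exposure period. GI50: concentration for 50% inhibition of growth. TGI: total growth inhibition.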

Columns and labels:
Assay in all cases: NCI anticancer screen, dose series, 48 h
HCT-15 colon = test system: HCT-15 colon
OVCAR-8 ovarian = test system: OVCAR-8 ovarian
MOLT-4 leukemia = test system: MOLT-4 leukemia
CAKI-1 renal = test system: CAKI-1 renal
HOP-62 NSCLC = test system: HOP-62 NSCLC
ACHN renal = test system: ACHN renal
LOX IMVI melanoma = test system: LOX IMVI melanoma
CCRF-CEM leukemia = test system: CCRF-CEM leukemia
EKVX NSCLC = test system: EKVX NSCLC
OVCAR-4 ovarian = test system: OVCAR-4 ovarian

SMILES | TGI (HCT-15 colon) [µM] | TGI (OVCAR-8 ovarian) [µM] | TGI (MOLT-4 leukemia) [µM] | TGI (CAKI-1 renal) [µM] | TGI (HOP-62 NSCLC) [µM] | TGI (ACHN renal) [µM] | TGI (LOX IMVI melanoma) [µM] | TGI (CCRF-CEM leukemia) [µM] | TGI (EKVX NSCLC) [µM] | TGI (OVCAR-4 ovarian) [µM] | GI50 (HCT-15 colon) [µM] | GI50 (CAKI-1 renal) [µM] | GI50 (EKVX NSCLC) [µM] | GI50 (HOP-62 NSCLC) [µM] | GI50 (ACHN renal) [µM] | GI50 (LOX IMVI melanoma) [µM] | GI50 (CCRF-CEM leukemia) [µM] | GI50 (MOLT-4 leukemia) [µM]
Cc1ccc(-c2n[nH]c(=O)n2N2C(=O)c3ccccc3C2=O)cc1 | > 100 | > 100 | > 100 | > 100 | > 100 | > 100 | > 100 |  |  |  |  |  |  |  |  |  |  | 
COc1cc2c(c(OC)c1OC)C(=O)[C@@H]1[C@H]2N1C(N)=O | > 100 | > 100 | > 100 | > 100 | > 100 | > 100 | > 100 | > 100 | > 100 |  |  |  |  |  |  |  |  | 
CC(C)(C)OC(=O)N[C@H]1CCN(C2CCCCC2)C1=O | > 100 | > 100 | > 100 |  | > 100 | > 100 | > 100 | > 100 | > 100 |  |  |  |  |  |  |  |  | 
Cc1c(O)c(O)cc[n+]1C1OC(CO)C(O)C1O (centres undefined) | > 100 | > 100 |  | > 100 |  | > 100 | > 100 | > 100 | > 100 | > 100 |  |  |  |  |  |  |  | 
O=c1c2cc([N+](=O)[O-])cnc2sn1-c1ccc([N+](=O)[O-])cc1 | 87.5 | > 100 | 75.6 |  | > 100 | > 100 | 49.4 | 82.2 | > 100 | 85.7 |  |  |  |  |  |  |  | 
CCOC(=O)/C=C/CC(C)(C)CCOC(C)=O | > 10 | > 10 | > 10 | > 10 | > 10 | > 10 | > 10 | > 10 |  | > 10 |  |  |  |  |  |  |  | 
O=C1c2ccccc2-c2c1c1ccccc1c(=O)n2CCNCCNCCNCCn1c2c(c3ccccc3c1=O)C(=O)c1ccccc1-2 | 2.11 |  |  | 4.19 | 2.45 | 0.555 | 0.572 |  | 2.81 |  | 0.579 | 1.44 | 1.28 | 0.0483 | 0.0536 | 0.0709 |  | 
COc1ccc(C2CC(c3c(O)ccc4ccccc34)=NN2C(C)=O)cc1OC (centres undefined) | > 100 | > 100 | 53.6 | > 100 | 94.4 | > 100 |  | 36.6 |  | > 100 |  |  |  |  |  |  |  | 
CCOC(=O)c1cn2c(n1)sc1cccc(C)c12 | > 100 | > 100 |  | > 100 | > 100 | > 100 | > 100 |  | > 100 |  |  |  |  |  |  |  |  | 
Cc1nc2n(c1/C=C1/C(=O)Nc3cccc(Cl)c31)CCS2 | > 100 | 88.4 | > 100 | > 100 | 74.1 | > 100 | > 100 | > 100 | > 100 |  |  |  |  |  |  |  |  | 
CC(C)=CCc1c2c(c3occ(-c4ccc(O)cc4)c(=O)c3c1O)CC(C(C)(C)O)O2 (centres undefined) | 30 | 36.2 | 31.8 | 35.7 | 33.6 | 28 | 30.4 | > 100 |  | 28.8 |  |  |  |  |  |  |  | 
C[C@]12CCC(O)CC1=CC[C@@H]1[C@@H]2CC[C@]2(C)C(=O)[C@H](n3ccnc3)C[C@@H]12 (some centres undefined) | > 100 | > 100 | 53.1 | > 100 |  | > 100 | > 100 | > 100 | > 100 | > 100 |  |  |  |  |  |  |  | 
CC(C)CCS(=O)(=O)OCCCCOS(=O)(=O)CCC(C)C | > 100 | > 100 | > 100 |  | 26.9 | > 100 | > 100 | > 100 | > 100 |  |  |  |  |  |  |  |  | 
CC1CCC(n2c3cnccc3c3cnc(Nc4ccc5c(n4)CCN(C(=O)CO)C5)nc32)CC1 (centres undefined) | > 100 |  | > 100 | > 100 |  | > 100 | > 100 | > 100 | > 100 |  | 0.418 | 0.536 | > 100 |  | 0.469 | 0.496 | 0.448 | 0.211
c1ccc(-c2nc(-c3ccccc3SSc3ccccc3-c3nc(-c4ccccc4)nn3-c3ccccc3)n(-c3ccccc3)n2)cc1 | > 100 | > 100 | > 100 | > 100 |  | > 100 | > 100 | > 100 | > 100 |  |  |  |  |  |  |  |  | 
ClCCN1CCC2(CC1)SSC1(CCN(CCCl)CC1)S2 | > 100 | > 100 | > 100 | 33.4 | > 100 | > 100 | > 100 | 55.6 |  | > 100 |  |  |  |  |  |  |  | 
O=C1CC(NC(=O)C(F)(F)F)c2c(Br)sc(N3CCNCC3)c21 (centres undefined) | > 100 | > 100 | > 100 | > 100 |  | > 100 | > 100 | > 100 | > 100 | > 100 |  |  |  |  |  |  |  | 
Cc1cn2c(/C=N/N=C(N)N)c(-c3cccc([N+](=O)[O-])c3)nc2s1 | 19.6 | 3.7 | 4.04 | 6.06 |  | 3.03 | 2.22 | > 100 | 5.39 | 1.07 |  |  |  |  |  |  |  | 
COc1cc(C(=O)N(C(=S)OCc2ccccn2)c2ccccc2)cc(OC)c1OC | > 100 | > 100 | > 100 | > 100 |  | > 100 | > 100 | > 100 | 79.9 |  |  |  |  |  |  |  |  | 
